Source: paper PMC9856044 (Biomolecules, 2023)

Assays:
[1] = Solubility and aggregation (UV/Vis characterization); type: physicochemical; details: sodium cacodylate buffer, I = 0.05 mol dm^−3, pH = 7.0; UV/Vis
Procedure: The UV/vis spectra were recorded on a Varian Cary 100 Bio spectrophotometer (Agilent, Santa Clara, CA, USA), CD spectra on JASCO J815 spectrophotometer (ABL&E Handels GmbH, Wien, Austria) and fluorescence spectra on a Varian Cary Eclipse spectrophotometer (Agilent, Santa Clara, CA, USA) at 25 °C using appropriate 1 cm path quartz cuvettes.
Studied compounds, 1–6 were soluble (c = 8 × 10^−4 mol dm^−3) in DMSO. […] Therefore, the stock solution of 2 was prepared fresh before use. The experiments were done in aqueous buffer (sodium cacodylate buffer, I = 0.05 mol dm^−3; pH = 7.0).
However, the shape of UV/Vis spectra of cyanine 2 changed with increasing concentration (calibration experiment in Figure S2 in SI). In addition to the dominant maximum at 432 nm (which most likely corresponds to the monomer form of the dye), the absorption band at 413 nm becomes more intense (Figure S2 in SI). Presumably, it corresponds to the aggregated form (H-aggregate). Based on the existence of an absorption band at 432 nm, only the monomer dye form is visible at high temperature (95 °C) (Figure S8b in SI). However, after cooling the solution to 25 °C, an additional band appears at 413 nm, which corresponds to the aggregated dye form.

[2] = target: Tel22 (5′-AGGG(TTAGGG)3–3′) G-quadruplex; experiment: Fluorimetric titration with Tel22 in potassium phosphate buffer (K+ solution); type: binding, human
Procedure: (§1) Materials. Polynucleotides were purchased as noted: poly A–poly U, calf thymus ctDNA, poly(dAdT)2 and poly(dGdC)2 (Sigma-Aldrich, St. Louis, MI, USA). Polynucleotides were dissolved in Na-cacodylate buffer, I = 0.05 mol dm^−3, pH = 7.0. The calf thymus ctDNA was additionally sonicated and filtered through a […]. Polynucleotide concentration was determined spectroscopically as the concentration of phosphates. Spectrophotometric titrations were performed at pH = 7.0 (I = 0.05 mol dm^−3, sodium cacodylate buffer) by adding aliquots of polynucleotide solution into the solution of the studied compound for fluorimetric experiments and CD experiments were done by adding aliquots of the compound stock solution into the solution of a polynucleotide. In fluorimetric experiments, an excitation wavelength of λexc = 425, 431, 423, 427, 406 and 407 nm, respectively, was used to avoid the inner filter effect caused due to increasing absorbance of the polynucleotide. Emission was collected in the range λem = 400–700 nm. Values for Ka obtained by processing titration data using the Scatchard equation [27], all have satisfactory correlation coefficients (≥0.98).
(§2) Thermal melting curves for DNA, RNA and their complexes with studied compounds were determined as previously described by following the absorption change at 260 nm as a function of temperature. The absorbance of the ligands was subtracted from every curve and the absorbance scale was normalized. Tm values are the midpoints of the transition curves determined from the maximum of the first derivative and checked graphically by the tangent method. The ∆Tm values were calculated by subtracting Tm of the free nucleic acid from Tm of the complex. Every ∆Tm value here reported was the average of two measurements. The error in ∆Tm is ±0.5 °C. 5′-AGGG(TTAGGG)3–3′(Tel22) was obtained from IDT (Integrated DNA Technologies, Coralville, IA, USA). Tel22 was dissolved in 0.1 M either in sodium cacodylate or potassium phosphate buffer. The starting Tel22 oligonucleotide solution was first heated up to 95 °C for 10 min, then slowly cooled to 10 °C at the cooling rate of 1 °C/min to allow DNA oligonucleotide to adopt a G-quadruplex structure. The G-quadruplex structure was confirmed by thermal melting and CD spectra. The concentration of G quadruplex was expressed in terms of oligonucleotide structure. In fluorimetric titrations, aliquots of Tel 22 solution were added to the solution of ligands (c ~ 2 × 10^−7 M, in SI).
Binding constants (log Ka) and stoichiometry of complexes were calculated from the fluorimetric data using non-linear least-square program SPECFIT [46], in the concentration range that corresponded to 20–80% complex formed.

[3] = tested on: Tel22 G-quadruplex; experiment: Thermal melting of Tel22 in potassium phosphate buffer; type: binding, human; details: Tel22, r = 1.0, potassium phosphate buffer, pH = 7.0, I = 0.1 mol dm^−3; error ±0.5 °C
Procedure: as §2

[4] = target: poly(dGdC)2 (GC-DNA); experiment: Fluorimetric titration with GC-DNA; type: binding; details: for log Ka / Ka (order of magnitude): GC-DNA; for Ka (order of magnitude): sodium cacodylate buffer, pH 7.0, I = 0.05 mol dm^−3, Scatchard equation; for K (fit parameter of titration curve): poly(dGdC)2, pH=7.0, sodium cacodylate buffer, I = 0.05 mol dm-3
Procedure: as §1, with “(≥0.98). Furthermore, linear changes were evident with increasing DNA or RNA concentration in most titrations. The exceptions to this were titrations of cyanine 3 with GC-DNA and titrations of dye 5 with ds-DNA and ds-RNA where sufficient data points in the non-linear part of the curve allowed estimation of binding affinity (Ka values were of the order 10^5 mol^−1 dm^−3; Figures S16, S22 and S23 in SI). Titration data were collected at a high excess of polynucleotide binding sites (r[1–6]/[nucleotide phosphate] < 0.1; see Figures S9–S26 in SI) where each molecule can bind to a separate binding site. Binding affinities of dye-DNA/RNA complexes were calculated by non-linear fitting using the Scatchard equation [27, 33]. The fluorescence changes of dye 5 in the titration with AT-DNA were too small to obtain an accurate binding constant (Figure S21 in SI).” for “(≥0.98).”

Compound | Aggregation in aqueous buffer [1] | logKa (L + G ⇆ LG, 1:1 complex) ([2]; Tel22, potassium phosphate buffer, pH = 7.0, I = 0.1 mol dm^−3, SPECFIT fit) | ∆Tm [3] | log Ka [4] | Ka (order of magnitude) [4] | K (fit parameter of titration curve) [4] | log Ka (indicated by steeper slope of titration curves) ([2]; Tel22, K+ solution, no accurate fit possible)
CN1/C(=C/c2[se]c3ccccc3[n+]2C)Sc2ccccc21 [Compound 3, 3-methyl-2-((3-methylbenzo[d]thiazol-2(3H)-ylidene)methyl)benzo[d][1,3]selenazol-3-ium methosulphate] | do not form aggregates | 6.88 ± 0.05 | 0.5 °C | 5 | ~10^5 mol^−1 dm^−3 | 183746.7242 ±8918685.57223 | –
C[n+]1c(/C=C2\Sc3ccccc3N2CCCS)[se]c2ccccc21 [Compound 5, 2-((3-(3-mercaptopropyl)benzo[d]thiazol-2(3H)-ylidene)methyl)-3-methylbenzo[d][1,3]selenazol-3-ium methosulphate] | significantly aggregate | – | 5.1 °C | 5 | ~10^5 mol^−1 dm^−3 | 282880.22043 ±15074133.56759 | ≥ 7
